# Earlier results in US20100081862A1, “Composition and method to modify sperm function and increase male gender ratio in mammals” (priority 2008, published 2010).
# Key:
# [1] = tested on: early-staged mouse embryos; settings: living early-staged mouse embryos, transplanted to produce normal living offspring
# [2] = tested on: Hexose Monophosphate Shunt (HMS); settings: bovine oocytes
smiles,measurement,setting,value
"CCN(CC)c1cc2c(cc1C)Nc1ccc(N)cc1O2 [BCB, 2-methyl-3-diethylamino-7-amino phenoxazine]",toxicity of BCB and its metabolites,[1],relatively non-toxic
same,increase in oxidation of glucose through the HMS,[2],15 fold
same,increase in glucose metabolism through glycolysis,[2]; compared with the increase through the HMS,somewhat less increase
